According to publication PMC7613620, “Reaction hijacking of tyrosine tRNA synthetase as a whole-of-life-cycle antimalarial strategy” (Science (New York, N.Y.), 2022):

System: P. falciparum Pf3D70087/N9
Test: Therapeutic efficacy in SCID mouse P. falciparum model
Assay type: in vivo, Plasmodium falciparum
Settings: single dose 50 mg/kg i.p.
From the text: 589 by genomic sequencing and were routinely tested for mycoplasma contamination using MycoAlert™
590 Mycoplasma Detection Kit (Lonza, Capsugel Australia).
592 E1-E2 Transthiolation Assays
593 An Homogeneous Time-Resolved Fluorescence (HTRF) enzyme assay was employed to evaluate
594 compound activity against ATG7 as previously described (11). In this assay, a Flag-tagged ATG8 homolog
595 (GABA type A receptor-associated protein; GABARAP) is activated by ATG7 and then transthiolated to a
596 GST-tagged E2 (ATG3). The product of the enzyme reaction, Flag-GABARAP-ATG3-GST, is quantified
597 by measuring FRET between Europium-Cryptate labelled monoclonal anti-Flag M2 (CisBio International,
598 Cat# 61FG2KLB) and PHYCOLINK goat anti-GST allophycocyanin (Prozyme, PJ252p1). The activation
599 and transthiolation of ubiquitin by Ubiquitin Activating Enzyme, activation and transthiolation of NEDD8 […]
605 Activity against male gametes was assessed using the dual gamete formation assay (PfDGFA)(32). […]
609 exflagellation was recorded and quantified by automated microscopy. […]
610 express Pfs25 on their surface after 24 h at 28°C was assessed by single-image fluorescence microscopy. […]
624 falciparum (Pf3D70087/N9) on day 0. The antimalarial efficacy was assessed following administration (i.p.) […]
638 precipitated with acetonitrile and the remaining compound was assessed by LC-MS/MS in the selected reaction […]

Nc1ncnc2c1c(OC(F)F)nn2[C@@H]1O[C@H](COS(N)(=O)=O)[C@@H](O)[C@H]1O [ML901]
effect on parasitemia (SCID mice engrafted with P. falciparum infected human RBCs): reduction of parasitemia to baseline
toxicity (SCID mice): no evidence of toxicity
